Results: patent US11401271B2, “Fused heterocyclic compound, pyrazole-ring-containing fused heterocyclic compound, agricultural composition containing thereof, and method of using the composition” (SOUTH CHINA AGRICULTURAL UNIVERSITY, priority 2017, dated 2022)
Like-named read-outs stand apart in the source and are kept apart here.

Tests used:
Assay in all cases: whole plant or invertebrate
Assay type in all cases: in vivo
Plutella xylostella = settings: for Plutella xylostella Mortality (%) 500 ppm / Plutella xylostella Mortality (%): 2nd-instar larvae, leaf immersion feeding, 500 ppm; for mortality at 500 ppm: Plutella xylostella, read-out: Plutella xylostella Mortality (%) 500 ppm
Experimental: (1) Insecticidal Activity on 2nd-Instar Larvae of Plutella xylostella.
Plutella xylostella (L.) is a lepidoptera pest with a chewing mouthpart and is a common vegetable pest. The 2nd-instar larvae of Plutella xylostella were used as test objects and tested by using a leaf immersion feeding method.
(§1) Operation process: Samples were weighed accurately, and respectively added with 200 μL of dimethyl sulfoxide to prepare 10 g/L mother liquor which was diluted into a concentration of 500 ppm with an aqueous solution containing 0.05% of Tween-80 during the test. A hole puncher with a diameter of 1.0 cm was used to make cleaned cabbage leaves into leaf discs. The leaf discs were immersed in a liquid medicine, taken out after 5 seconds, air-dried naturally, and transferred into a clean vessel. About 35 2nd-instar larvae of Plutella xylostella were put into the vessel and fed at a constant temperature of 28° C. Each concentration was repeated 3 times, and an aqueous solution containing 0.05% of Tween-80 was used as a control group. After being treated for 24 hours, a number of dead Plutella xylostella was counted, and a mortality (%) was calculated according to a formula that mortality (%)=(number of live larvae in the control group−number of treated live larvae)/number of live larvae in the control group*100%.

Spodoptera exigua = settings: for Spodoptera exigua Mortality (%) 500 ppm / Spodoptera exigua Mortality (%): 2nd-instar larvae, leaf immersion feeding, 500 ppm; for Spodoptera exigua Mortality (%) 500 ppm: 24 hours; for mortality at 500 ppm: Spodoptera exigua, 24 h, read-out: Spodoptera exigua Mortality (%) 500 ppm
Experimental: (2) Insecticidal Activity on 2nd-Instar Larvae of Spodoptera exigua.
Spodoptera exigua is a lepidoptera pest with a chewing mouthpart and is a common vegetable pest. The 2nd-instar larvae of Spodoptera exigua were used as test objects and tested by using a leaf immersion feeding method.
as §1, with “μL,” for “μL”, “2nd -instar” for “2nd-instar”, “Spodoptera exigua” for “Plutella xylostella”, “group −number” for “group−number”, “group * 100%.” for “group*100%.”

Aphis craccivora = settings: for Aphis craccivora Mortality (%) 500 ppm / Aphis craccivora Mortality (%): wingless adults, 500 ppm; for Aphis craccivora Mortality (%) 500 ppm: impregnation method, 24 hours; for Aphis craccivora Mortality (%): immersion 5 seconds, counted after 24 hours; for mortality at 500 ppm: Aphis craccivora, 24 h, read-out: Aphis craccivora Mortality (%) 500 ppm
Experimental: (3) Insecticidal Activity on Aphid Adults.
Aphid is a homoptera pest with a piercing-sucking mouthpart and is a common vegetable pest. Aphis craccivora were taken as test objects and tested by using an impregnation method.
Operation process: Samples were weighed accurately, and respectively added with 200 μL of dimethyl sulfoxide to prepare 10 g/L mother liquor which was diluted into a concentration of 500 ppm with an aqueous solution containing 0.05% of Tween-80 during the test. After the wingless Aphis craccivora adults stably sucked on bean sprouts, the wingless Aphis craccivora adults together with the bean sprouts were immersed into a liquid medicine with a concentration of 500 ppm, taken out after 5 seconds, air-dried naturally, transferred into a clean vessel, and fed at a constant temperature of 23° C. Each concentration was repeated 3 times, and an aqueous solution containing 0.05% of Tween-80 was used as a control group. After being treated for 24 hours, a number of dead Aphis craccivora was counted, and a mortality (%) was calculated according to a formula that mortality (%)=(number of live Aphis craccivora in the control group−number of treated live Aphis craccivora)/number of live Aphis craccivora in the control group*100%.

Solenopsis invicta = settings: for Solenopsis invicta Mortality (%) 100 ppm 24 h / Solenopsis invicta Mortality (%) 100 ppm 72 h / Solenopsis invicta Mortality (%) 24 h / Solenopsis invicta Mortality (%) 72 h: 100 ppm; for mortality at 100 ppm: Solenopsis invicta
Experimental: (4) Insecticidal Activity on Solenopsis invicta.
As a hymenoptera pests and a social insect, Solenopsis invicta is one of the most destructive invasive organisms. Solenopsis invicta were used as test objects and tested by using a water test tube poison-feeding method.
Operation process: Samples were weighed accurately, and respectively added with 200 μL of dimethyl sulfoxide to prepare 10 g/L mother liquor which was diluted into a concentration of 100 ppm with a mixed aqueous solution containing 0.05% of Tween-80 and 5% of honey during the test. […] The raising test tube was placed in a raising box horizontally, and a small amount of ham sausages were added to the raising test tube as food to raise the Solenopsis invicta at a constant temperature of 25° C. After being treated for 24 hours and 72 hours, a number of live Solenopsis invicta and a number of dead Solenopsis invicta were counted, and a mortality (%) was calculated according to a formula that mortality (%)=(number of live Solenopsis invicta in the control group−number of treated live Solenopsis invicta)/number of live Solenopsis invicta in the control group*100%.

[1] = 24 h, water test tube poison-feeding
[2] = 72 h, water test tube poison-feeding
[3] = 24 h, read-out: Solenopsis invicta Mortality (%) 100 ppm 24 h, 100 ppm, 24 h, water test tube poison-feeding
[4] = 72 h, read-out: Solenopsis invicta Mortality (%) 100 ppm 72 h, 100 ppm, 72 h, water test tube poison-feeding

Compound | Plutella xylostella Mortality (%) (Plutella xylostella) | Spodoptera exigua Mortality (%) (Spodoptera exigua) | Aphis craccivora Mortality (%) (Aphis craccivora) | Solenopsis invicta Mortality (%) 24 h (Solenopsis invicta; [1]) [%] | Solenopsis invicta Mortality (%) 72 h (Solenopsis invicta; [2]) [%] | mortality at 500 ppm (Plutella xylostella) [%] | mortality at 500 ppm (Spodoptera exigua) [%] | mortality at 500 ppm (Aphis craccivora) [%] | further results
COC(=O)C1Nc2c([S+]([O-])C(F)(F)F)c(C#N)nn2-c2ncc(C(F)(F)F)cc21 (stereo not drawn) [a-64] |  |  |  |  |  |  |  |  | Plutella xylostella Mortality (%) 500 ppm (Plutella xylostella): 100%; Spodoptera exigua Mortality (%) 500 ppm (Spodoptera exigua): 99%; Aphis craccivora Mortality (%) 500 ppm (Aphis craccivora): 100%; Solenopsis invicta Mortality (%) 100 ppm 24 h (Solenopsis invicta; [1]): 20%; Solenopsis invicta Mortality (%) 100 ppm 72 h (Solenopsis invicta; [2]): 99%
N#Cc1nn2c(c1[S+]([O-])C(F)(F)F)NC(CC(=O)C(F)(F)F)(C(=O)C(F)(F)F)c1c(Cl)cncc1-2 (stereo not drawn) [b-25] | 100 | 100 | 100 | 26 | 100 |  |  |  | 
[O-][S+](c1c(C(F)(F)F)nn2c1NC(C(F)(F)F)c1cc(C(F)(F)F)cc(Cl)c1-2)C(F)(F)F (stereo not drawn) [d-107] | 100 | 100 | 100 | 24 | 100 |  |  |  | 
CC(=O)C1(CC(=O)C(F)(F)F)Nc2c([S+]([O-])C(F)(F)F)c(C#N)nn2-c2ncc(C(F)(F)F)cc21 (stereo not drawn) [a-37] |  |  |  |  |  |  |  |  | Plutella xylostella Mortality (%) 500 ppm (Plutella xylostella): 100%; Spodoptera exigua Mortality (%) 500 ppm (Spodoptera exigua): 96%; Aphis craccivora Mortality (%) 500 ppm (Aphis craccivora): 100%; Solenopsis invicta Mortality (%) 100 ppm 24 h (Solenopsis invicta; [1]): 15%; Solenopsis invicta Mortality (%) 100 ppm 72 h (Solenopsis invicta; [2]): 99%
O=C(CC1Nc2c([S+]([O-])C(F)(F)F)c(C(F)(F)F)nn2-c2c(Cl)cc(C(F)(F)F)cc21)C(F)(F)F (stereo not drawn) [d-103] | 100 | 98 | 100 | 26 | 93 |  |  |  | 
N#Cc1nn2c(c1[S+]([O-])C(F)(F)F)NC(Cl)(Cl)c1cc(C(F)(F)F)cnc1-2 (stereo not drawn) [a-44, 5,5-dichloro-7-trifluoromethyl-3-trifluoromethylsulfinyl-4,5-dihydropyrazole[1,5-α]quinazoline[3,2-e]pyridine-2-cyano] |  |  |  |  |  |  |  |  | Plutella xylostella Mortality (%) 500 ppm (Plutella xylostella): 100%; Spodoptera exigua Mortality (%) 500 ppm (Spodoptera exigua): 95%; Aphis craccivora Mortality (%) 500 ppm (Aphis craccivora): 100%; Solenopsis invicta Mortality (%) 100 ppm 24 h (Solenopsis invicta; [1]): 15%; Solenopsis invicta Mortality (%) 100 ppm 72 h (Solenopsis invicta; [2]): 95%
CNCC1(CC#N)Nc2c([S+](C)[O-])c(C(C)=O)nn2-c2c(Cl)cc(C(F)(F)F)cc21 (stereo not drawn) [Compound C42] |  |  |  |  |  | 91 | 94 | 100 | mortality at 100 ppm (Solenopsis invicta; [3]): 20%; mortality at 100 ppm (Solenopsis invicta; [4]): 70%
CSc1nn2c(c1C#N)N(CCBr)C(F)(C(F)(F)F)c1ccccc1-2 (stereo not drawn) [Compound A35] |  |  |  |  |  | 100 | 100 | 100 | mortality at 100 ppm (Solenopsis invicta; 24 h, read-out: Solenopsis invicta Mortality (%) 100 ppm 24 h): 31%; mortality at 100 ppm (Solenopsis invicta; 72 h, read-out: Solenopsis invicta Mortality (%) 100 ppm 72 h): 99%
9-chloro-2-cyano-3-cyclohexanesulfinyl-5-(2′2-dimethoxy)-7-trifluoromethyl-4,5-dihydropyrazole[1,5-α]quinazoline-5-methyl formate [d-12] | 86 | 96 | 100 | 20 | 100 |  |  |  | 
N#Cc1nn2c(c1[S+]([O-])C(F)(F)F)NC(Cl)c1cc(C(F)(F)F)cc(Cl)c1-2 (stereo not drawn) [d-90] | 82 | 80 | 90 | 16 | 85 |  |  |  | 
CC(=O)C1(CC(=O)C(F)(F)F)Nc2c([S+]([O-])C(F)(F)F)c(C#N)nn2-c2cncc(Cl)c21 (stereo not drawn) [b-37] | 86 | 90 | 99 | 20 | 94 |  |  |  | 
C=CC1(CCl)Nc2c([S+](C)[O-])c(C(C)=O)nn2-c2c(Cl)cc(C(F)(F)F)cc21 (stereo not drawn) [Compound C19] |  |  |  |  |  | 90 | 90 | 100 | mortality at 100 ppm (Solenopsis invicta; [3]): 18%; mortality at 100 ppm (Solenopsis invicta; [4]): 70%
CNC(=O)c1nn2c(c1Br)NC(C)(C)c1ccccc1-2 [Compound A6] |  |  |  |  |  | 100 | 100 | 100 | mortality at 100 ppm (Solenopsis invicta; [3]): 44%; mortality at 100 ppm (Solenopsis invicta; [4]): 100%
COC(=O)CC1(C(=O)OC)Nc2c([S+]([O-])C(F)(F)F)c(C#N)nn2-c2cc(C(F)(F)F)c(Cl)cc21 (stereo not drawn) [e-19] | 100 | 100 | 100 | 31 | 90 |  |  |  | 
[O-][S+](c1c(C(F)(F)F)nn2c1NC(Br)c1cc(C(F)(F)F)cc(Cl)c1-2)C(F)(F)F (stereo not drawn) [d-114] | 100 | 87 | 100 | 24 | 90 |  |  |  | 
C=CC1(CC#N)Nc2c([S+]([O-])CC)c(C#N)nn2-c2c(Cl)cc(C(F)(F)F)cc21 (stereo not drawn) [Compound C21] |  |  |  |  |  | 90 | 95 | 100 | mortality at 100 ppm (Solenopsis invicta; [3]): 19%; mortality at 100 ppm (Solenopsis invicta; [4]): 99%
N#Cc1nn2c(c1[S+]([O-])C(F)(F)F)NC(Cl)c1c(Cl)cncc1-2 (stereo not drawn) [b-80] | 95 | 90 | 100 | 14 | 90 |  |  |  | 
N#Cc1nn2c(c1OC(F)(F)F)NC(CC(=O)C(F)(F)F)c1c(Cl)cncc1-2 (stereo not drawn) [b-116] | 100 | 98 | 100 | 20 | 100 |  |  |  | 
N#Cc1nn2c(c1[S+]([O-])C(F)(F)F)NC(CC(=O)C(F)(F)F)c1c(Cl)cncc1-2 (stereo not drawn) [b-70] | 100 | 95 | 100 | 44 | 100 |  |  |  | 
CN1CCN(C(=O)C2(CC#N)Nc3c([S+]([O-])C(F)(F)F)c(C#N)nn3-c3c(Cl)cc(C(F)(F)F)cc32)CC1 (stereo not drawn) [Compound C34] |  |  |  |  |  | 100 | 100 | 100 | mortality at 100 ppm (Solenopsis invicta; [3]): 40%; mortality at 100 ppm (Solenopsis invicta; [4]): 100%
N#CCC1(CBr)Nc2c([S+]([O-])C(F)(F)F)c(C#N)nn2-c2c(Cl)cc(C(F)(F)F)cc21 (stereo not drawn) [Compound C28] |  |  |  |  |  | 100 | 100 | 100 | mortality at 100 ppm (Solenopsis invicta; [3]): 30%; mortality at 100 ppm (Solenopsis invicta; [4]): 98%
